Results: US6737383B1, “Herbicidal oxadiazolidines” (priority 1999, dated 2004)

Tests used:
[1] = tested on: morningglory; assay: Test B pre/postemergence morningglory; format: in vivo, Ipomoea hederacea
Method in brief: (§1)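 Herbicidal effect was estimated by eye on a ten-point control scale after plants spent twelve to sixteen days in a greenhouse following soil or foliar treatment. Foliar sprays targeted plants at one to four leaves; all doses were formulated in a non-phytotoxic solvent with surfactant.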

[2] = tested on: rape; assay: Test B pre/postemergence rape; format: in vivo, Brassica napus
Method in brief: as §1

[3] = tested on: wheat; assay: Test B pre/postemergence wheat; format: in vivo, Triticum aestivum
Method in brief: as §1

[4] = tested on: duck salad; assay: Test B flood test duck salad; format: in vivo, Heteranthera limosa
Method in brief: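 Read-out is a visual response score from 0 (no effect) to 10 (complete control), assigned by comparison with untreated controls. Treatment was applied at the 2-leaf stage, and plants stayed in the greenhouse for twelve to sixteen days before scoring.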

[5] = tested on: common pursiane; assay: Test D common purslane; format: in vivo, Portulaca oleracea; details: Preemergence, 0 to 100 scale, 0 no injury, 100 complete control
Description: (§2) Seeds, tubers, or plant parts of Alexandergrass (Brachiaria plantaginea), bermuda-grass (Cynodon dactylon), common pursiane (Portulaca oleracea), common ragweed (Ambrosia elatior), common groundsel (Senecio vulgaris), dallisgrass (Paspalum dilatatum), goosegrass (Eleusine indica), guineagrass (Panicum maximum), itchgrass (Rottboellia exaltata), Johnson grass (Sorghum halepense), large crabgrass (Digitaria sanguinalis), pitted morningglory (Ipomoea lacunosa), purple nutsedge (Cyperus rotundus), sandbur (Cenchrus echinatus), sourgrass (Trichachne insularis), Spanishneedles (Bidens bipinnata), surinam grass (Brachiaria decumbens) and tall mallow (Malva sylvestris) were planted into greenhouse pots of flats containing greenhouse planting medium. Plant species were grown in separate pots or individual compartments. Preemergence applications were made within one day of planting the seed or plant part.
(§3) Test chemicals were formulated in a non-phytotoxic solvent mixture which included a surfactant and applied preemergence to the surface of the pot containing seeds in a sandy loam soil. Untreated control pots and treated pots were placed in the greenhouse for growth and visually evaluated for injury 14 to 21 days after herbicide application. Plant response ratings, summarized in Table C, are based on a 0 to 100 scale where 0 is no injury and 100 is complete control. A dash (−) response means no test result.

[6] = tested on: common ragweed; assay: Test D common ragweed; format: in vivo, Ambrosia elatior; details: Preemergence, 0 to 100 scale, 0 no injury, 100 complete control
Description: as §2, §3

[7] = tested on: winter wheat; assay: Test E winter wheat; format: in vivo, Triticum aestivum; details: Postemergence
Method in brief: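 Postemergence: 60:40 sandy loam/greenhouse potting mix, 1- to 4-leaf stage. Formulation: solvent plus surfactant. Assessment: visual comparison with untreated controls at ~21–28 days.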

[8] = tested on: blackgrass; assay: Test E blackgrass; format: in vivo, Alopecurus myosuroides; details: Preemergence
[9] = tested on: green foxtail; assay: Test E green foxtail; format: in vivo, Setaria viridis; details: Preemergence
[10] = tested on: Italian ryegrass; assay: Test E Italian ryegrass; format: in vivo, Lolium multiflorum; details: Preemergence
[11] = tested on: winter wheat; assay: Test E winter wheat; format: in vivo, Triticum aestivum; details: Preemergence
[12] = tested on: wild oat; assay: Test E wild oat; format: in vivo, Avena fatua; details: Preemergence, 0 to 100 scale where 0 is no effect and 100 is complete control
[13] = tested on: winter barley; assay: Test E winter barley; format: in vivo, Hordeum vulgare; details: Preemergence
[14] = Postemergence, Rate 62 g/ha, scale 0 to 10, 0 is no effect, 10 is complete control
[15] = Postemergence, Rate 250 g/ha, scale 0 to 10, 0 no effect, 10 complete control
[16] = Preemergence, Rate 62 g/ha, scale 0 to 10, 0 is no effect, 10 is complete control
[17] = Preemergence, Rate 125 g/ha, scale 0 to 10 (0 no effect, 10 complete control)
[18] = Preemergence, Rate 250 g/ha, scale of 0 to 10 where 0 is no effect and 10 is complete control
[19] = Preemergence, Rate 500 g/ha, scale 0 (no effect) to 10 (complete control)
[20] = Rate 125 g/ha, Postemergence, scale 0 to 10, 0 no effect, 10 complete control
[21] = Rate 500 g/ha, Postemergence, 0 to 10 scale (0 no effect, 10 complete control)
[22] = Rate 500 g/ha, 0 to 100 scale where 0 is no effect and 100 is complete control
[23] = Rate 1000 g/ha, 0 to 100 scale where 0 is no effect and 100 is complete control
[24] = Postemergence, Rate 125 g/ha, scale of 0 to 10 where 0 is no effect and 10 is complete control
[25] = Preemergence, Rate 62 g/ha, scale 0 to 10 (0 no effect, 10 complete control)
[26] = Preemergence, Rate 125 g/ha, 0 is no effect, 10 is complete control
[27] = Preemergence, Rate 250 g/ha, scale 0 to 10, 0 is no effect, 10 is complete control
[28] = Preemergence, Rate 500 g/ha, scale 0 to 10 (0 no effect, 10 complete control)
[29] = Rate 62 g/ha, Postemergence, scale of 0 to 10 where 0 is no effect and 10 is complete control
[30] = Rate 250 g/ha, Postemergence, scale 0 to 10, 0 is no effect, 10 is complete control
[31] = Rate 500 g/ha, Postemergence, scale 0 to 10

Cc1cccc(C)c1-n1c(=O)on(C(=O)N(c2ccc(F)cc2)C(C)C)c1=O [Compound 18]
20: Plant response rating, Wheat (winter) [11, 23] | Plant response rating, Barley (winter) ([13]; Rate 250 g/ha, 0 to 100 scale)
50: Plant response rating, Green foxtail [9, 22] | Plant response rating, Wild oat ([12]; Rate 1000 g/ha) | Plant response rating, Barley (winter) [13, 23]
55: Plant response rating, Wheat (winter) ([7]; Rate 250 g/ha, 0 to 100 scale (0 no effect, 100 complete control))
7: Ducksalad plant response rating ([4]; Rate 125 g/ha, Postemergence section (flood test species), scale 0 to 10, 0 no effect, 10 complete control) | Ducksalad plant response rating ([4]; Rate 500 g/ha, Postemergence section of Table B, 0 to 10 scale (0 no effect, 10 complete control)) | Ducksalad plant response rating ([4]; flood test, listed under Postemergence, Rate 250 g/ha, scale 0 to 10, 0 no effect, 10 complete control)
40: Plant response rating, I. Ryegrass ([10]; Rate 250 g/ha, 0 to 100 scale) | Plant response rating, Wild oat ([12]; Rate 500 g/ha)
70: Plant response rating, Green foxtail [9, 23] | Plant response rating, I. Ryegrass [10, 23]
30: Plant response rating, Green foxtail ([9]; Rate 250 g/ha, 0 to 100 scale) | Plant response rating, Barley (winter) [13, 22]
65: Plant response rating, Wheat (winter) ([7]; Rate 500 g/ha, 0 to 100 scale, 0 no effect, 100 complete control)
10: Plant response rating, Blackgrass ([8]; Rate 250 g/ha, 0 to 100 scale) | Plant response rating, Wheat (winter) [11, 22]
1: Morningglory plant response rating [1, 14] | Morningglory plant response rating [1, 20] | Rape plant response rating [2, 21] | Plant response rating, Ducksalad ([4]; Rate 500 g/ha, headed Pre-emergence (flood test species), scale 0 to 10 (0 no effect, 10 complete control))
3: Morningglory plant response rating [1, 21]
85: Plant response rating, Blackgrass [8, 23]
25: Plant response rating, Blackgrass [8, 22]
60: Plant response rating, I. Ryegrass [10, 22]
0: Plant response rating, Morningglory [1, 16] | Plant response rating, Morningglory [1, 17] | Plant response rating, Morningglory [1, 18] | Rape plant response rating [2, 14] | Rape plant response rating [2, 15] | Plant response rating, Rape [2, 16] | Plant response rating, Rape [2, 17] | Plant response rating, Rape [2, 18] | Rape plant response rating [2, 20] | Wheat plant response rating [3, 14] | Wheat plant response rating [3, 15] | Plant response rating, Wheat [3, 16] | Plant response rating, Wheat [3, 17] | Plant response rating, Wheat [3, 18] | Wheat plant response rating [3, 19] | Wheat plant response rating [3, 20] | Ducksalad plant response rating [4, 14] | Ducksalad plant response rating ([4]; Rate 62 g/ha, headed Pre-emergence (flood test species), scale 0 to 10 (0 no effect, 10 complete control)) | Ducksalad plant response rating ([4]; Rate 125 g/ha, Pre-emergence, flood test species, scale 0 to 10 where 0 is no effect and 10 is complete control) | Ducksalad plant response rating ([4]; Rate 250 g/ha, headed Pre-emergence (flood test species), scale 0 to 10 (0 no effect, 10 complete control)) | Ducksalad plant response rating ([4]; Rate 1000 g/ha, Pre-emergence (as headed), scale 0 to 10) | Ducksalad plant response rating ([4]; Rate 2000 g/ha, Pre-emergence (as headed), scale 0 to 10) | Plant response rating, C. purslane ([5]; Rate 16 g/ha) | Plant response rating, C. purslane ([5]; Rate 32 g/ha) | Plant response rating, C. purslane ([5]; Rate 64 g/ha) | Plant response rating, C. purslane ([5]; Rate 125 g/ha) | Plant response rating, C. ragweed ([6]; Rate 16 g/ha) | Plant response rating, C. ragweed ([6]; Rate 32 g/ha) | Plant response rating, C. ragweed ([6]; Rate 64 g/ha) | Plant response rating, C. ragweed ([6]; Rate 125 g/ha) | Plant response rating, Wheat (winter) ([11]; Rate 250 g/ha, 0 to 100 scale)
2: Morningglory plant response rating [1, 15] | Morningglory plant response rating [1, 19] | Rape plant response rating [2, 19]

CCCn1c(=O)on(C(=O)N(c2ccc(F)cc2F)C(C)C)c1=O [Compound 130]
2: Morningglory plant response rating [1, 24] | Morningglory plant response rating [1, 29] | Plant response rating, Morningglory [1, 30] | Rape plant response rating [2, 24] | Rape plant response rating [2, 31] | Wheat plant response rating [3, 25]
0: Morningglory plant response rating [1, 25] | Morningglory plant response rating (0 to 10 scale) [1, 26] | Rape plant response rating [2, 29] | Wheat plant response rating [3, 29] | Plant response rating, C. purslane ([5]; Rate 64 g/ha)
3: Morningglory plant response rating [1, 27] | Morningglory plant response rating [1, 31] | Wheat plant response rating (0 to 10 scale) [3, 26] | Plant response rating, Wheat [3, 30]
10: Rape plant response rating [2, 27] | Rape plant response rating [2, 28]
9: Rape plant response rating (0 to 10 scale) [2, 26]
1: Wheat plant response rating [3, 24]
30: Plant response rating, C. ragweed ([6]; Rate 64 g/ha)
4: Morningglory plant response rating [1, 28] | Rape plant response rating [2, 25] | Wheat plant response rating [3, 28]
8: Wheat plant response rating [3, 31]
